Test results: paper PMC9196629, “Synthesis, Characterization and Antitumor Mechanism Investigation of Heterometallic Ru(Ⅱ)-Re(Ⅰ) Complexes” (Frontiers in Chemistry, 2022)

Experiments:
[1] = test system: A549R (cisplatin-resistant A549); experiment: MTT cytotoxicity assay; format: cell-based, human; conditions: for IC50: MTT, 48 h incubation, mean ± SD; for fold greater ability to kill A549R cells than cisplatin: ratio of IC50 values, cisplatin / complex
Protocol: The anticancer activities of RuRe-1 and RuRe-2 against four cancer cell lines: HeLa (human cervical cancer cells), HepG2 (human hepatocellular carcinoma), A549 (human lung cancer cells), A549R (cisplatin-resistant A549) and one normal cell line LO2 (human normal liver cells) were determined by 3-(4,5-dimethylthiazole)-2,5-diphenyltetraazolium bromide (MTT) assay, while the mononuclear complexes Ru-1, Ru-2, Re-1 and cisplatin were selected as controls. […] And the in vitro antiproliferative efficacies of the compounds against HeLa cells were in the following order: RuRe-2 > RuRe-1 > Re-1 > cisplatin > Ru-1 > Ru-2. […] The anticancer activity of the mononuclear rhenium complex Re-1 was between 5.6 μM and 8.0 μM, which contributed the most to the antitumor activities of the heteronuclear Ru(II)-Re(Ⅰ) metal complexes.
Cell lines and culture conditions. HeLa, HepG2, A549, A549R and LO2 cells were purchased from Nanjing KeyGen Biotech., and cultured in DMEM or RPMI 1640 complete medium at 37 ℃ with 5% CO2 atmosphere.
In vitro cytotoxicity assay. The anti-tumor activity of mononuclear complexes Ru-1, Ru-2, Re-1 and heteronuclear RuRe-1 and RuRe-2 were determined by MTT (5 mg/mL) assay. Cells were placed in 96-well plates and cultured for 24 h at 37 ℃ in a 5% CO2 incubator. After replacing the culture medium with fresh medium containing RuRe-1 or RuRe-2 at the indicated concentration, cells were cultured for 48 h. 20 μL MTT was added to each well 4 h before the end of the incubation. Subsequently, the liquid in the cell wells was poured out and 150 μL/well DMSO was added to dissolve the MTT-formazan crystals. The absorbance of living cells at 570 nm was detected.

[2] = n-octanol/water partition coefficient by shaking flask method; format: physicochemical
Excerpt: Drugs exert their effects through pharmacokinetic processes such as absorption, distribution, and metabolism, which are closely related to the n-octanol/water partition coefficient of the drug (log P o/w) ([Choi et al., 2012]).

[3] = Stability in PBS by UV-Vis spectroscopy; format: physicochemical; conditions: 10 μM, PBS, 0, 24 and 48 h
Protocol: The stabilities of RuRe-1 and RuRe-2 in PBS and human serum albumin (HSA) were tested through UV–Vis spectroscopy.
Supplementary Figure 12. UV-Vis absorption spectra of RuRe-1 (10 μM), RuRe-2 (10 μM), Ru-1 (10 μM), Ru-2 (10 μM) and Re-1 (10 μM) in PBS (A) and HSA (B) solution collected at 0, 24, and 48 h, respectively.

HeLa cells [4] = experiment: Hoechst 33342 staining of nuclear morphology; format: cell-based, human; conditions: 24 h
Protocol: First, changes in cell morphology of HeLa cells induced by RuRe-1 and RuRe-2 were examined with 2'-(4-ethoxyphenyl)-5-(4-methyl-1-piperazinyl)-2,5′-bi-1H-benzimidazole trihydrochloride (Hoechst 33342) staining. Hoechst 33342 is a blue fluorescent dye that can penetrate cell membranes and is commonly used to stain cell nuclei ([Tian et al., 2018]).
FIGURE 2 RuRe-1 and RuRe-2 induced HeLa cells apoptosis measured by confocal microscopy with Hoechst 33342 staining (λ ex = 405 nm, λ em = 460 ± 20 nm). The incubation time of the compounds was 24 h. Arrows indicate apoptotic morphological nuclei. Scale bar: 20 μm.
Hoechst 33342 staining assay. After HeLa cells were adhered to the confocal dishes, the medium was replaced with a medium containing the indicated concentrations of RuRe-1 and RuRe-2. After incubation for 24 h, the medium was aspirated and the cells were washed three times with PBS, then fixed with 4% paraformaldehyde. Subsequently, cells were labelled 10 mins with Hoechst 33342 (5 μg/mL) and observed immediately under confocal microscope (λex = 405 nm, λem = 460 ± 20 nm).

HeLa cells [5] = experiment: Mitochondrial membrane potential (MMP) by Rh123 staining; format: cell-based, human; conditions: 6 h, confocal microscopy
Excerpt: Apoptosis is associated with a decrease in MMP ([Wu et al., 2022]), so we investigated the effects of RuRe-1 and RuRe-2 on MMP. A decrease in fluorescence intensity of rhodamine 123 (Rh123) can indicate the loss of MMP ([Ma et al., 2019]). […] The decline of MMP further confirmed that RuRe-1 and RuRe-2 could influence mitochondrial function and promote apoptosis.
FIGURE 6 RuRe-1 and RuRe-2 induced the loss of MMP analyzed by confocal microscopy with Rh123 staining (λ ex = 488 nm, λ em = 530 ± 20 nm). The incubation time of the compounds was 6 h. Scale bar: 20 μm.
Measurement of MMP. After HeLa cells were adhered to the confocal dishes, the medium was replaced with medium containing the indicated concentrations of RuRe-1 and RuRe-2 for 6 h. Subsequently, the medium was aspirated and the cells were washed three times with PBS, then stained with Rh123 (1 μg/mL) for 30 mins. After washing with PBS twice, cells were observed under a confocal microscopy (λex = 488 nm, λem = 530 ± 20 nm).

HeLa cells [6] = experiment: Colony formation assay; format: cell-based, human; conditions: 24 h treatment then 7 days
Protocol: The consequence of increased local cell migration is distal invasion, and the clonal growth of distal invasive cells will produce a second tumor ([Wang et al., 2017]). We further investigated the ability of RuRe-1 and RuRe-2 to inhibit the formation of cell colonies by cell colony formation assay.
Colony forming assay. HeLa cells were cultured in 6-well plates at a density of 500 cells per well. After cells had adhered, the medium was replaced with medium containing the indicated concentrations of RuRe-1 and RuRe-2 for 24 h. Subsequently, the medium was replaced with fresh medium and the cells were cultured for 7 days to form colonies. The colonies formed were fixed with 4% paraformaldehyde, and stained with crystal violet (0.005%). Finally, colonies were calculated and the images were taken using digital camera.

Compound	IC50 [1] [µM]	fold greater ability to kill A549R cells than cisplatin [1]	log P o/w [2]	stability in PBS (UV-Vis spectral characteristics and absorption peaks) [3]	nuclear morphology (Hoechst 33342) (HeLa cells [4])	MMP (green fluorescence intensity of Rh123) (HeLa cells [5])	cell populations (colonies) compared to the control group (HeLa cells [6]; 9.3 μM) [%]	cell populations (colonies) compared to the control group (HeLa cells [6]; 7.5 μM) [%]
F[P-](F)(F)(F)(F)F.F[P-](F)(F)(F)(F)F.F[P-](F)(F)(F)(F)F.[C-]#[O+].[C-]#[O+].[C-]#[O+].[Re+].[Ru+2].c1ccc(-c2ccccn2)nc1.c1ccc(-c2ccccn2)nc1.c1ccc(-c2ccnc3c2ccc2c(-c4ccccc4)ccnc23)cc1.c1cnc2c(c1)c1nc(-c3ccncc3)[nH]c1c1cccnc12 [RuRe-1, [Ru(bpy)2LRe(CO)3(DIP)](PF6)3]	10.4 ± 1.2	approximately 8.7 fold	0.47	no significant change	typical apoptotic characteristics	decrease in the green fluorescence intensity of Rh123 in a dose-dependent manner	4.8	–
F[P-](F)(F)(F)(F)F.F[P-](F)(F)(F)(F)F.F[P-](F)(F)(F)(F)F.[C-]#[O+].[C-]#[O+].[C-]#[O+].[Re+].[Ru+2].c1ccc(-c2ccnc3c2ccc2c(-c4ccccc4)ccnc23)cc1.c1cnc2c(c1)c1nc(-c3ccncc3)[nH]c1c1cccnc12.c1cnc2c(c1)ccc1cccnc12.c1cnc2c(c1)ccc1cccnc12 [RuRe-2, [Ru(phen)2LRe(CO)3(DIP)](PF6)3]	16.7 ± 0.8	~5.4 fold	2.10	no significant change	typical apoptotic characteristics	decrease in the green fluorescence intensity of Rh123 in a dose-dependent manner	–	3.9
